# Assay results as given in patent US20040082551A1, “Novel pyrazoles and their use as p38 kinase inhibitors” (priority 2002, published 2004).
# Several values for one entry are separate records, joined by “and”; a condition that tells them apart may be missing. Equal entries are not always repeated.
# Target: T1, human p38 kinase alpha (Homo sapiens, UniProt Q16539)
# T1 construct: The coding region of the human p38α cDNA was obtained by PCR-amplification from RNA isolated from the human monocyte cell line THP.1; made in house; host or cells: E. coli DH10B
# T1 sequence (Q16539 whole entry): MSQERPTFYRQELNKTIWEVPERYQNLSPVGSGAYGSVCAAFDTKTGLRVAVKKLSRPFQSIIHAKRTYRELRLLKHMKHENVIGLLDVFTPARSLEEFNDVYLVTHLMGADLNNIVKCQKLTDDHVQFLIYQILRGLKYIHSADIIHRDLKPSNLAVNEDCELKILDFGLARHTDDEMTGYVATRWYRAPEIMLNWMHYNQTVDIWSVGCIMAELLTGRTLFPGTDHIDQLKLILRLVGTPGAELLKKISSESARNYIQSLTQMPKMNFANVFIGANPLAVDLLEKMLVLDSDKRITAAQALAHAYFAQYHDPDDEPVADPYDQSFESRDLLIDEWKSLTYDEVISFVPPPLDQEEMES
# Experiment: In vitro p38 kinase inhibition analysis (PHAS-I 32P-ATP or EGFRP 33P-ATP format)
# Assay type: biochemical
# Conditions: Table 2; additional pyrazole compounds, Examples 56-169; read-out: p38α Kinase Inhibition (IC50 in μM)
# Procedure: The ability of compounds to inhibit human p38 kinase alpha was evaluated using one of two in vitro assay methods. In the first method, activated human p38 kinase alpha phosphorylates a biotinylated substrate, PHAS-I (phosphorylated heat and acid stable protein-insulin inducible), in the presence of gamma ^32P-ATP (^32P-ATP). PHAS-I was biotinylated before the assay, and provided a means of capturing the substrate which was phosphorylated during the assay. p38 Kinase was activated by MKK6. Compounds were tested in 10 fold serial dilutions over the range of 100 μM to 0.001 μM using 1% DMSO. Each concentration of inhibitor was tested in triplicate.
# All reactions were carried out in 96 well polypropylene plates. Each reaction well contained 25 mM HEPES pH 7.5, 10 mM magnesium acetate, and 50 μM unlabeled ATP. […] Activated human p38 kinase alpha was used at 1 μg per 50 μl reaction volume, representing a final concentration of 0.3 μM. Gamma ^32P-ATP was used to follow the phosphorylation of PHAS-I. ^32P-ATP has a specific activity of 3000 Ci/mmol, and was used at 1.2 μCi per 50 μl reaction volume. The reaction proceeded either for one hr or overnight at 30° C.
# Following incubation, 20 μl of reaction mixture was transferred to a high capacity streptavidin coated filter plate (SAM-streptavidin-matrix, Promega) prewetted with phosphate buffered saline. The transferred reaction mix was allowed to contact the streptavidin membrane of the Promega plate for 1-2 min. […] Filter plates were air dried and 20 μl of scintillant was added. The plates were sealed and counted.
# A second assay format was alternatively employed. This assay is based on p38 kinase alpha being induced phosphorylation of EGFRP (epidermal growth factor receptor peptide, a 21 mer) in the presence of ^33P-ATP. Compounds were tested in 10 fold serial dilutions over the range of 100 μM to 0.001 μM in 10% DMSO. Each concentration of inhibitor was tested in triplicate. Compounds were evaluated in 50 μl reaction volumes in the presence of 25 mM HEPES pH 7.5, 10 mM magnesium acetate, 4% glycerol, 0.4% bovine serum albumin, 0.4 mM DTT, 50 μM unlabeled ATP, 25 μg EGFRP (200 μM), and 0.05 uCi gamma ^33P-ATP. Reactions were initiated by addition of 0.09 μg of activated, purified human GST-p38 kinase alpha. Activation was carried out using GST-MKK6 (5:1,p38:MKK6) for one hr at 30° C. in the presence of 50 μM ATP. Following incubation for 60 min at room temperature, the reaction was stopped by addition of 150 μl of AG 1×8 resin in 900 mM sodium formate buffer, pH 3.0 (1 volume resin to 2 volumes buffer). The mixture was mixed three times with pipetting. Afterward, the resin was allowed to settle. A total of 50 μl of clarified solution head volume was transferred from the reaction wells to Microlite-2 plates. 150 μl of Microscint 40 was then added to each well of the Microlite plate, and the plate was sealed, mixed, and counted.
row,IC50,SMILES
1,1.68 µM,CC(C)(C)OC(=O)N1CCC(c2[nH]nc(-c3ccc(Cl)cc3)c2-c2ccnc(OC3CCCC3)n2)CC1 [Example 131]
2,3.34 µM,CC(C)(C)OC(=O)N1CCC(c2[nH]nc(-c3ccc(Cl)cc3)c2-c2ccnc(O[C@@H]3CCOC3)n2)CC1 [Example 132]
3,0.848 µM,CC(C)(C)OC(=O)N1CCC(c2[nH]nc(-c3ccc(Cl)cc3)c2-c2ccnc(Oc3ccccc3C#N)n2)CC1 [Example 133]
4,1.59 µM,CC(C)(C)OC(=O)N1CCC(c2[nH]nc(-c3ccc(Cl)cc3)c2-c2ccnc(Oc3cccc(C#N)c3)n2)CC1 [Example 134]
5,1.5 µM,CC(C)(C)OC(=O)N1CCC(c2[nH]nc(-c3ccc(Cl)cc3)c2-c2ccnc(Oc3ccc(C#N)cc3)n2)CC1 [Example 135]
6,16.9 µM,CC(C)(C)OC(=O)N1CCC(c2[nH]nc(-c3ccc(Cl)cc3)c2-c2ccnc(OCCN3CCOCC3)n2)CC1 [Example 136]
7,9.34 µM,CN(C)CCOc1nccc(-c2c(-c3cccc(Cl)c3)n[nH]c2C2CCN(C(=O)OC(C)(C)C)CC2)n1 [Example 137]
8,0.162 µM,CN(C)CCOc1nccc(-c2c(-c3cccc(Cl)c3)n[nH]c2C2CCNCC2)n1 [Example 138]
9,0.854 µM,CN(C)CCOc1nccc(-c2c(-c3ccc(F)c(C(F)(F)F)c3)n[nH]c2C2CCN(C(=O)CO)CC2)n1 [Example 139]
10,0.01 µM,CC(C)(C)OC(=O)N1CCC(c2[nH]nc(-c3ccc(Cl)cc3)c2-c2ccnc(NC3CCCC3)n2)CC1 [Example 140]
11,3.64 µM,CN(C)CCNc1nccc(-c2c(-c3ccc(Cl)cc3)n[nH]c2C2CCN(C(=O)OC(C)(C)C)CC2)n1 [Example 143]
12,0.159 µM,CN(C)CCNc1nccc(-c2c(-c3ccc(Cl)cc3)n[nH]c2C2CCNCC2)n1 [Example 144]
13,4.1 µM,CN(C)CCNc1nccc(-c2c(-c3cccc(Cl)c3)n[nH]c2C2CCN(C(=O)OC(C)(C)C)CC2)n1 [Example 145]
14,0.261 µM,CN(C)CCNc1nccc(-c2c(-c3ccc(F)c(C(F)(F)F)c3)n[nH]c2C2CCNCC2)n1 [Example 146]
15,1.07 µM and 0.847 µM,CN(C)CCOc1nccc(-c2c(-c3ccc(Cl)cc3F)n[nH]c2C2CCN(C(=O)CO)CC2)n1 [Example 157]
16,1.3 µM and 0.647 µM,CN(C)CCOc1nccc(-c2c(-c3ccc(Cl)cc3F)n[nH]c2C2CCN(C(=O)CO)CC2)n1 [Example 158]
17,4.4 µM,CN(C)CCNc1nccc(-c2c(-c3ccc(Cl)cc3F)n[nH]c2C2CCN(C(=O)OC(C)(C)C)CC2)n1 [Example 160]
18,0.202 µM,CN(C)CCNc1nccc(-c2c(-c3ccc(Cl)cc3F)n[nH]c2C2CCNCC2)n1 [Example 161]
19,0.474 µM,CN(C)CCNc1nccc(-c2c(-c3ccc(Cl)cc3F)n[nH]c2C2CCN(C(=O)CO)CC2)n1 [Example 162]
20,1.1 µM,CN(C)CCNc1nccc(-c2c(-c3ccc(F)c(C(F)(F)F)c3)n[nH]c2C2CCN(C)CC2)n1 [Example 166]

# The remaining lines, values behind:
row,SMILES,IC50
1,Clc1ccc(-c2n[nH]c(C3CCNCC3)c2-c2ccnc(NC3CCCC3)n2)cc1 [Example 141],0.01 µM
2,Fc1cc(Cl)ccc1-c1n[nH]c(C2CCNCC2)c1-c1ccnc(NC2CCCC2)n1 [Example 147],0.0159 µM
3,CN1CCC(c2[nH]nc(-c3ccc(Cl)cc3)c2-c2ccnc(NC3CCCC3)n2)CC1 [Example 148],0.0148 µM
4,Clc1ccc(-c2n[nH]c(C3CCNCC3)c2-c2ccnc(NC3CCN(Cc4ccccc4)CC3)n2)cc1 [Example 150],0.034 µM
5,O=C(CO)N1CCC(c2[nH]nc(-c3ccc(Cl)cc3)c2-c2ccnc(NC3CCN(Cc4ccccc4)CC3)n2)CC1 [Example 151],0.053 µM
6,CN1CCC(c2[nH]nc(-c3ccc(Cl)cc3)c2-c2ccnc(NC3CCN(Cc4ccccc4)CC3)n2)CC1 [Example 152],0.075 µM
7,CN1CCC(c2[nH]nc(-c3ccc(Cl)cc3F)c2-c2ccnc(NC3CCCC3)n2)CC1 [Example 153],0.0182 µM
8,O=C(CO)N1CCC(c2[nH]nc(-c3ccc(Cl)cc3F)c2-c2ccnc(NC3CCCC3)n2)CC1 [Example 154],0.0176 µM
9,CN(C)CCOc1nccc(-c2c(-c3ccc(F)c(C(F)(F)F)c3)n[nH]c2C2CCNCC2)n1 [Example 155],0.527 µM
10,CN(C)CCOc1nccc(-c2c(-c3ccc(Cl)cc3F)n[nH]c2C2CCNCC2)n1 [Example 156],0.637 µM and 0.627 µM
11,CS(=O)(=O)N1CCC(c2[nH]nc(-c3ccc(Cl)cc3F)c2-c2ccnc(NC3CCCC3)n2)CC1 [Example 159],0.0047 µM
12,Fc1ccc(-c2n[nH]c(C3CCNCC3)c2-c2ccnc(NC3CCCC3)n2)cc1C(F)(F)F [Example 164],0.0225 µM
13,FC(F)(F)c1cc(-c2n[nH]c(C3CCNCC3)c2-c2ccnc(NC3CCCC3)n2)ccc1NC1CCCC1 [Example 165],0.424 µM
14,CN1CCC(c2[nH]nc(-c3ccc(F)c(C(F)(F)F)c3)c2-c2ccnc(NC3CCCC3)n2)CC1 [Example 167],0.0063 µM
15,CN1CCC(c2[nH]nc(-c3ccc(Cl)cc3F)c2-c2ccnc(NC3CCCC3)n2)CC1 [Example 168],1 µM
16,O=C(CO)N1CCC(c2[nH]nc(-c3ccc(F)c(C(F)(F)F)c3)c2-c2ccnc(NC3CCCC3)n2)CC1 [Example 169],0.0032 µM
